Data as given in ChEMBL document CHEMBL5726904, “Compounds, compositions, and methods” (2018).

Biological target: Leucine-rich repeat serine/threonine-protein kinase 2 (Homo sapiens, UniProt Q5S007, G2019S)
Assay: Biochemical Assay: Materials: LRRK2 G2019S enzyme Substrate (LRRKtide) ATP TR-FRET dilution buffer pLRRKtide antibody 384-well assay plate DMSOEnzyme Reaction Conditions 50 mM Tris pH 7.5, 10 mM MgCl2, 1 mM EGTA, 0.01% Brij-35, 2 mM DTT 5 nM LRRK2 134 μM ATP 60 minute reaction time 23° C. reaction temperature 10 μL total reaction volumeDetection Reaction Conditions 1× TR-FRET dilution buffer 10 mM EDTA 2 nM antibody 23° C. reaction temperature 10 μL total reaction volumeCompounds were prepared by initially diluting to 1 mM with DMSO. 35 μL of reference compound solution, 35 μL of test compound solution, and 35 μL HPE were successively added to the source plate (384-well assay plate, Labcyte). The plates were centrifuged at 2500 rpm for 1 minute and sealed in foil. POD was used to perform a 3.162 fold serial dilution and 100 nL of reference compound solution, test compound solution, HPE and ZPE were transferred to assay plates. The assay plate was centrifuged at 2500 rpm for 1 minute, and sealed with foil.To perform the enzyme reaction, 5 μL of LRRKtide substrate and kinase mixture in assay buffer was added to all wells of the assay plate. The plate was centrifuged to concentrate the mixture at the bottom of the wells. The assay plate was incubated at 23° C. for 20 minutes. […]

Leucine-rich repeat serine/threonine-protein kinase 2, sequence (Q5S007 whole entry G2019S): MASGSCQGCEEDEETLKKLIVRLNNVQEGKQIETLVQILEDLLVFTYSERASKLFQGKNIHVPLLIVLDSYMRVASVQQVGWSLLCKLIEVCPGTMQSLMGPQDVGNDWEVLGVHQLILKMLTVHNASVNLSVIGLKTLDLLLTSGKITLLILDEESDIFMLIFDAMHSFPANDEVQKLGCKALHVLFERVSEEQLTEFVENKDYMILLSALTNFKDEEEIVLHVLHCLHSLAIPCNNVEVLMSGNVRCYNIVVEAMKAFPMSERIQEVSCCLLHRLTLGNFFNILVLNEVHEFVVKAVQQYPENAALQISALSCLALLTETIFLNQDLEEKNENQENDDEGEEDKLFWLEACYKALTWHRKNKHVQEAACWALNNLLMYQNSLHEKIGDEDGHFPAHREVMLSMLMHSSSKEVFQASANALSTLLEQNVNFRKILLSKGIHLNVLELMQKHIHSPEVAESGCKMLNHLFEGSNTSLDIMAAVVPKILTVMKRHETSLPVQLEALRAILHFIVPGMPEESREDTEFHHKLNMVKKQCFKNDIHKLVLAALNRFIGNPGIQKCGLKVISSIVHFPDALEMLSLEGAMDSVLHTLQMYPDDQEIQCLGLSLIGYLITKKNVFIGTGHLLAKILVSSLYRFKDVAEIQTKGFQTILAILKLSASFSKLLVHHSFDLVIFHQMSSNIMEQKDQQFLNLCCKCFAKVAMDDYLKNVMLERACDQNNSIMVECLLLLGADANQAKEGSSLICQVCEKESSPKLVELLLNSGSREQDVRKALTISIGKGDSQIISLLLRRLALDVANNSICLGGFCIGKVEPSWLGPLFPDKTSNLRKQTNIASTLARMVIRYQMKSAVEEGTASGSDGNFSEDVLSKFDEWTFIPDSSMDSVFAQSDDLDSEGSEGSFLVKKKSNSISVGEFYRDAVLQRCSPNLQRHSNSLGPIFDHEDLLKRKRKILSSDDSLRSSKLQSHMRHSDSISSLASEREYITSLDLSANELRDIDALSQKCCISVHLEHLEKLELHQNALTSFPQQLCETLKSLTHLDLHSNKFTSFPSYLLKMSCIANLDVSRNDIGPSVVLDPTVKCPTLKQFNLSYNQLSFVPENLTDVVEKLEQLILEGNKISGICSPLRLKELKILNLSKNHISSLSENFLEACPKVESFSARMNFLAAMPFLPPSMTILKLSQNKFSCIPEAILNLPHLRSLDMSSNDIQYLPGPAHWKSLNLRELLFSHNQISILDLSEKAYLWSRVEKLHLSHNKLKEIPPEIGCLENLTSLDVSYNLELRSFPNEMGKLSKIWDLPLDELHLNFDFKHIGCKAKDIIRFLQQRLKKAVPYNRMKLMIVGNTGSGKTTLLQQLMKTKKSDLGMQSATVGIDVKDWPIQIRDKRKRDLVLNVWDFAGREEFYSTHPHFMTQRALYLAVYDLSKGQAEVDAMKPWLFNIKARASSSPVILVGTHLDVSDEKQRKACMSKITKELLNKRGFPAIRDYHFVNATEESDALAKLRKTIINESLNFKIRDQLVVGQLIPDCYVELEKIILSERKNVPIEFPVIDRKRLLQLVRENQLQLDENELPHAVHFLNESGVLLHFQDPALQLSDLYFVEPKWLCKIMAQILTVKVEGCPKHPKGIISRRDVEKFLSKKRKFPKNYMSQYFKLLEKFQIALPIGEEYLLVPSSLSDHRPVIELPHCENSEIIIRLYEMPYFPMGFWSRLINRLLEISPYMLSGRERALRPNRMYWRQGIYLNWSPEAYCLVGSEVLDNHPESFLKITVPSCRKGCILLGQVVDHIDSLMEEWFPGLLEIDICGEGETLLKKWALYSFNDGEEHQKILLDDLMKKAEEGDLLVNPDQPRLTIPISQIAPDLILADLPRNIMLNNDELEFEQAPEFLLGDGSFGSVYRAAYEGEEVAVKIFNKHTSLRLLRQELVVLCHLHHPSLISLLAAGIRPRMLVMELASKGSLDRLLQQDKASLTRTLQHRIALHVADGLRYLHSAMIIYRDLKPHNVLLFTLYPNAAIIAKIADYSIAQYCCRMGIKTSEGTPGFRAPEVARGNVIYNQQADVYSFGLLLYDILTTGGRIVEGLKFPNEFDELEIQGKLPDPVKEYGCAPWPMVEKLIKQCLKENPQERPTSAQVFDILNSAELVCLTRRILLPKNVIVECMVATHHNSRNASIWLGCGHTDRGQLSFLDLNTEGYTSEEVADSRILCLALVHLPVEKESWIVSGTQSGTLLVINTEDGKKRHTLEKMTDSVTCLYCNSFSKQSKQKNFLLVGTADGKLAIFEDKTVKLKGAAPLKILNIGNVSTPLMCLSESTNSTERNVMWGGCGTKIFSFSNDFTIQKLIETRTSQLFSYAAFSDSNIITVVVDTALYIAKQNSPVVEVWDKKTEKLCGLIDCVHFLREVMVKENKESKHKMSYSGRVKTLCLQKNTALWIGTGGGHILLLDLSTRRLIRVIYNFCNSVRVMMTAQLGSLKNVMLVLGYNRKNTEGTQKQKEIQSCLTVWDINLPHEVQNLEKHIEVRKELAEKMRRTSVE

IC50 | Structure (SMILES)
< 30 nM | COc1nc(Nc2cn(C(C)(C)C#N)nc2C)ncc1Br
< 30 nM | COc1nc(Nc2cn(C3C[C@@H]3C#N)nc2C2CC2)ncc1Br (single isomer, unassigned)
